These are literature values, as cited in patent US6783772B1, “Pharmaceutical preparations containing alendronate sodium” (priority 2003, dated 2004).

For data set [1], the system named is bone resorption. The note with it: 40 mg once daily for six months.
For data set [2], the system named is bone resorption. As to conditions: postmenopausal women; 5, 20 and 40 mg daily oral for six weeks.

The structures appear in SMILES notation.

Turning to `NCCCC(O)(P(=O)([O-])O)P(=O)(O)O.O.O.O.[Na+]` [Alendronate sodium, (4-amino-1-hydroxybutylidene) bisphosphonic acid monosodium salt trihydrate], the “serum alkaline phosphotase and urinary markers of bone collagen degradation” value in the data set with bone resorption [1] is “highly significant decreases”. Further, in the data set with bone resorption [1] (clinical trials), the serum calcium phosphate result was “generally mild, transient, decreases”. Moreover, the “biochemical changes (urinary calcium, urinary markers of bone collagen degradation)” value in the data set on bone resorption [2] is reported as “dose-dependent inhibition of bone resorption”.
